# Test results as given in PubChem BioAssay (NCI).
# Several values for one entry are separate records, joined by “and”; a condition that tells them apart may be missing. Equal entries are not always repeated.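 At the GI50, growth is halved. TGI denotes the concentration required for complete inhibition of growth.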
# Assays:
# Assay in all cases: inhibition of tumour cell growth, NCI panel, 384-well format
# OVCAR-3 ovarian = system: OVCAR-3 ovarian
# SK-OV-3 ovarian = system: SK-OV-3 ovarian
# BT-549 breast = system: BT-549 breast
# U251 glioblastoma = system: U251 glioblastoma
# SR leukemia = system: SR leukemia
# IGROV1 ovarian = system: IGROV1 ovarian
# UACC-62 melanoma = system: UACC-62 melanoma
# HOP-62 NSCLC = system: HOP-62 NSCLC
# OVCAR-5 ovarian = system: OVCAR-5 ovarian
# HS 578T breast = system: HS 578T breast
# RXF 393 renal = system: RXF 393 renal
# SF-268 CNS = system: SF-268 CNS
# NCI-H23 lung = system: NCI-H23 lung
# NCI-H226 lung = system: NCI-H226 lung
# NCI-H322M lung = system: NCI-H322M lung
# NCI-H460 NSCLC = system: NCI-H460 NSCLC
# NCI/ADR-RES ovarian = system: NCI/ADR-RES ovarian
# UO-31 renal = system: UO-31 renal
# SW-620 colon = system: SW-620 colon
# HT29 colon = system: HT29 colon
# OVCAR-4 ovarian = system: OVCAR-4 ovarian
# SK-MEL-2 melanoma = system: SK-MEL-2 melanoma
# LOX IMVI melanoma = system: LOX IMVI melanoma
# MOLT-4 leukemia = system: MOLT-4 leukemia
# RPMI-8226 leukemia = system: RPMI-8226 leukemia
# SK-MEL-5 melanoma = system: SK-MEL-5 melanoma
# K-562 leukemia = system: K-562 leukemia
# CCRF-CEM leukemia = system: CCRF-CEM leukemia
# SF-539 CNS = system: SF-539 CNS
# MDA-MB-231 breast = system: MDA-MB-231 breast
# MALME-3M melanoma = system: MALME-3M melanoma
# PC-3 prostate = system: PC-3 prostate
# MDA-MB-435 melanoma = system: MDA-MB-435 melanoma
# MDA-MB-468 breast = system: MDA-MB-468 breast
# TK-10 renal = system: TK-10 renal
# OVCAR-8 ovarian = system: OVCAR-8 ovarian
# HCT-116 colon = system: HCT-116 colon
# HCC-2998 colon = system: HCC-2998 colon
# EKVX NSCLC = system: EKVX NSCLC
# SNB-19 CNS = system: SNB-19 CNS
# HCT-15 colon = system: HCT-15 colon
# SNB-75 CNS = system: SNB-75 CNS
# HL-60(TB) leukemia = system: HL-60(TB) leukemia
# HOP-92 NSCLC = system: HOP-92 NSCLC
# DU-145 prostate = system: DU-145 prostate
# KM12 colon = system: KM12 colon
# SN12C renal = system: SN12C renal
# CAKI-1 renal = system: CAKI-1 renal
# COLO 205 colon = system: COLO 205 colon
# SK-MEL-28 melanoma = system: SK-MEL-28 melanoma
# MCF7 breast = system: MCF7 breast
# A498 renal = system: A498 renal
# 786-0 renal = system: 786-0 renal
# SF-295 CNS = system: SF-295 CNS
# A549 NSCLC = system: A549 NSCLC
# M14 melanoma = system: M14 melanoma
# ACHN renal = system: ACHN renal
# NCI-H522 lung = system: NCI-H522 lung
# T-47D breast = system: T-47D breast
structure (smiles),measurement,setting,value
Nc1nc2[nH]cc(CCc3ccc(C(=O)N[C@@H](CCC(=O)O)C(=O)O)cc3)c2c(=O)[nH]1,GI50,OVCAR-3 ovarian,336 nM and 286 nM
same,TGI,OVCAR-3 ovarian,50000 nM and > 100000 nM
same,TGI,SK-OV-3 ovarian,> 100000 nM
same,GI50,BT-549 breast,194 nM and 37.6 nM
same,GI50,U251 glioblastoma,243 nM and 249 nM
same,GI50,SR leukemia,33.1 nM and 38.8 nM
same,GI50,IGROV1 ovarian,> 50000 nM and 29800 nM
same,TGI,IGROV1 ovarian,> 100000 nM
same,GI50,UACC-62 melanoma,350 nM and 445 nM
same,TGI,UACC-62 melanoma,50000 nM and > 100000 nM
same,GI50,HOP-62 NSCLC,307 nM and 181 nM
same,TGI,HOP-62 NSCLC,50000 nM and > 100000 nM
same,GI50,OVCAR-5 ovarian,1310 nM and 4200 nM
same,TGI,OVCAR-5 ovarian,50000 nM and > 100000 nM
same,GI50,HS 578T breast,254 nM and 276 nM
same,TGI,HS 578T breast,50000 nM and > 100000 nM
same,GI50,RXF 393 renal,24.8 nM
same,TGI,RXF 393 renal,58.3 nM
same,GI50,SF-268 CNS,45.8 nM and 33.4 nM
same,TGI,SF-268 CNS,264 nM and 96.2 nM
same,GI50,NCI-H23 lung,> 50000 nM and 9320 nM
same,TGI,NCI-H23 lung,> 100000 nM
same,GI50,NCI-H226 lung,54 nM and 28.2 nM
same,GI50,NCI-H322M lung,> 100000 nM
same,TGI,NCI-H322M lung,> 100000 nM
same,GI50,NCI-H460 NSCLC,120 nM and 79.2 nM
same,TGI,NCI-H460 NSCLC,50000 nM and > 100000 nM
same,GI50,NCI/ADR-RES ovarian,267 nM and 151 nM
same,TGI,NCI/ADR-RES ovarian,50000 nM and > 100000 nM
same,GI50,UO-31 renal,195 nM and 33.4 nM
same,GI50,SW-620 colon,47.2 nM and 70.8 nM
same,TGI,SW-620 colon,50000 nM and > 100000 nM
same,GI50,HT29 colon,257 nM and 89 nM
same,TGI,HT29 colon,50000 nM and > 100000 nM
same,GI50,OVCAR-4 ovarian,> 50000 nM and 6980 nM
same,TGI,OVCAR-4 ovarian,> 100000 nM
same,GI50,SK-MEL-2 melanoma,> 50000 nM
same,TGI,SK-MEL-2 melanoma,> 50000 nM
same,GI50,LOX IMVI melanoma,88.3 nM
same,TGI,LOX IMVI melanoma,> 100000 nM
same,GI50,MOLT-4 leukemia,12.1 nM and 19.2 nM
same,TGI,MOLT-4 leukemia,23.6 nM and 33.8 nM
same,GI50,RPMI-8226 leukemia,17.2 nM and 26 nM
same,TGI,RPMI-8226 leukemia,40.2 nM and 52.8 nM
same,TGI,SK-MEL-5 melanoma,> 100000 nM
same,GI50,K-562 leukemia,11.8 nM
same,TGI,K-562 leukemia,24.8 nM
same,GI50,CCRF-CEM leukemia,21.3 nM
same,TGI,CCRF-CEM leukemia,73.3 nM
same,GI50,SF-539 CNS,72.1 nM and 41.9 nM
same,GI50,MDA-MB-231 breast,234 nM and 374 nM
same,TGI,MDA-MB-231 breast,1120 nM and 1630 nM
same,GI50,MALME-3M melanoma,3120 nM and 728 nM
same,TGI,MALME-3M melanoma,50000 nM and > 100000 nM
same,GI50,PC-3 prostate,64.3 nM
same,TGI,PC-3 prostate,> 100000 nM
same,TGI,MDA-MB-435 melanoma,50000 nM and > 100000 nM
same,GI50,MDA-MB-468 breast,131 nM and 322 nM
same,GI50,TK-10 renal,245 nM and 760 nM
same,TGI,TK-10 renal,50000 nM and > 100000 nM
same,GI50,OVCAR-8 ovarian,44.7 nM and 50.1 nM
same,TGI,OVCAR-8 ovarian,50000 nM and > 100000 nM
same,GI50,HCT-116 colon,38.7 nM and 61.8 nM
same,TGI,HCT-116 colon,50000 nM and > 100000 nM
same,GI50,HCC-2998 colon,40.5 nM and 24 nM
same,TGI,HCC-2998 colon,50000 nM and > 100000 nM
same,TGI,EKVX NSCLC,> 100000 nM
same,GI50,SNB-19 CNS,1030 nM and 3660 nM
same,TGI,SNB-19 CNS,50000 nM and > 100000 nM
same,GI50,HCT-15 colon,1160 nM and 506 nM
same,TGI,HCT-15 colon,50000 nM and > 100000 nM
same,GI50,SNB-75 CNS,78.2 nM and 121 nM
same,GI50,HL-60(TB) leukemia,14.8 nM and 22.6 nM
same,TGI,HL-60(TB) leukemia,30.5 nM and 57.5 nM
same,GI50,HOP-92 NSCLC,> 100000 nM
same,TGI,HOP-92 NSCLC,> 100000 nM
same,GI50,DU-145 prostate,202 nM and 146 nM
same,TGI,DU-145 prostate,50000 nM and > 100000 nM
same,GI50,KM12 colon,> 100000 nM
same,TGI,KM12 colon,> 100000 nM
same,GI50,SN12C renal,45.8 nM and 36.6 nM
same,GI50,CAKI-1 renal,193 nM and 179 nM
same,TGI,CAKI-1 renal,50000 nM and > 100000 nM
same,GI50,COLO 205 colon,37.9 nM and 30.6 nM
same,GI50,SK-MEL-28 melanoma,167 nM
same,TGI,SK-MEL-28 melanoma,5610 nM
same,GI50,MCF7 breast,47.1 nM and 33.9 nM
same,TGI,MCF7 breast,50000 nM and > 100000 nM
same,TGI,A498 renal,50000 nM and > 100000 nM
same,GI50,786-0 renal,33.5 nM and 30.5 nM
same,TGI,786-0 renal,50000 nM and 8170 nM
same,GI50,SF-295 CNS,31.6 nM and 75.6 nM
same,GI50,A549 NSCLC,355 nM and 294 nM
same,TGI,A549 NSCLC,50000 nM and > 100000 nM
same,GI50,M14 melanoma,105 nM and 56.1 nM
same,GI50,ACHN renal,180 nM and 80.4 nM
same,TGI,ACHN renal,50000 nM and > 100000 nM
same,GI50,NCI-H522 lung,300 nM and 327 nM
same,GI50,T-47D breast,> 100000 nM
same,TGI,T-47D breast,> 100000 nM
